{
  "source": "patent US7285678B2",
  "about": "“Purification of 2-nitro-4-methylsulphonylbenzoic acid” (Syngenta Limited, priority 2001, dated 2007)",
  "experiment": "Ames test",
  "assay_type": "cell-based",
  "data": [
    {"smiles": "CS(=O)(=O)c1ccc(C(=O)C2C(=O)CCCC2=O)c([N+](=O)[O-])c1", "note": "[Mesotrione, 2-(4-methylsulfonyl-2-nitrobenzoyl)cyclohexane-1,3-dione]", "values": [
      {"measurement": "Ames test", "setting": "Mesotrione made from NMSBA purified by Example 1 (one pot: filtration, activated carbon, hydrolysis at pH 13, crystallization)", "result": "negative"},
      {"measurement": "Ames test response", "setting": "Mesotrione made from NMSBA purified by Example 2, both fractions (with carbon and without carbon)", "result": "negative"},
      {"measurement": "Ames test", "setting": "Mesotrione made from NMSBA purified by Example 3 (20, 30 and 40% solids loading)", "result": "negative"},
      {"measurement": "Ames test response", "setting": "Mesotrione made from NMSBA purified by Example 4 double isolation, fractions (A) and (B)", "result": "negative"},
      {"measurement": "Ames test result", "setting": "mesotrione made by the known process from NMSBA starting material containing impurities (not purified)", "result": "positive"}
    ]}
  ]
}
